Measured values taken from US20250154154A1 (Relay Binney Street, 2nd Floor, priority 2020, published 2025).
Structures can show the parent of a compound that is named as a salt.

Legend:
SRC = SRC (Homo sapiens, UniProt P12931); experiment: SRC Biochemical Assay Protocol (microfluidic mobility shift assay, FLPeptide4 substrate)
In short: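 Recombinant SRC (0.26 nM) preincubated 30 min at RT with compound (0.0017–100 μM) and 1.5 μM FLPeptide4, then 50 μM ATP added; 90 min reaction in HEPES pH 7.4, 10 mM MgCl2, 1% DMSO, EDTA-quenched. Phosphopeptide quantified by microfluidic mobility shift; IC50 from 4-parameter logistic fit.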

RBE cells = experiment: Cell Viability Protocol (CellTiterGlo), RBE cells; format: cell-based; settings: RBE or SNU-1079 cells, 72 or 120 hour, cell line and time not given
In short: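 RBE cells plated at 1200/well in RPMI 1640 with 10% FBS, incubated 24 h, then dosed with compound from DMSO stocks and incubated 72 or 120 h at 37° C. CellTiterGlo luminescence normalised to DMSO control; IC50 from 4-parameter fit.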

[1] = tested on: phospho-S6RP (Ser 235/236) in RBE cells; experiment: Cellular Proliferation Protocol (cellular phospho-S6RP HTRF), RBE cells; format: cell-based; settings: 6 hours treatment, RBE or SNU-1079 cells, cell line not given
In short: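 RBE cells, 2000/well, seeded 24 h before 6 h compound treatment at 37° C. Lysates were probed with a Eu-cryptate/d2 HTRF antibody sandwich for phospho-S6RP (Ser 235/236), incubated overnight at room temperature. Signal normalised to DMSO control and IC50 fitted to a 4-parameter curve.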

IC50 (SRC) [nM] | Compound | IC50 (RBE cells) [nM] | IC50 ([1]; 6 h) [nM] | IC50 [1] [nM]
10 to 1000 | C=CC(=O)N1CCC(N2CC(F)(C#Cc3c(-c4ccc(Oc5ccccc5)cc4)c4c(N)ncnc4n3C)C2)CC1 [II-176, 1-(4-(3-((4-amino-7-methyl-5-(4-phenoxyphenyl)-7H-pyrrolo[2,3-d]pyrimidin-6-yl)ethynyl)-3-fluoroazetidin-1-yl)piperidin-1-yl)prop-2-en-1-one] | ≤ 10 | ≤ 10 | –
10 to 1000 | 1-((3R,4S)-4-(3- ((4-amino-5-(4-(3- fluorophenoxy) phenyl)-7-methyl-7H- pyrrolo[2,3- d]pyrimidin-6- yl)ethynyl)azetidin- 1-yl)-3- hydroxypiperidin- 1-yl)prop-2-en-1- one [II-249] | ≤ 10 | – | ≤ 10
10 to 1000 | C=CC(=O)N1CCC(C#Cc2c(-c3ccc(Oc4ccccc4)cc3)c3c(N)ncnc3n2C(C)C(N)=O)CC1 (stereo not drawn) [Example I-33] | 10 to 1000 | 10 to 1000 | –
1000 to 10000 | C=CC(=O)N1CCC(N2CC(C#Cc3c(-c4ccc(Oc5ccccc5)cc4OC)c4cncnc4n3C)C2)CC1 [II-30] | 10 to 1000 | 10 to 1000 | –
10 to 1000 | C=CC(=O)N1CC[C@@H](N2CC(C#Cc3c(-c4ccc(C(F)(F)F)cc4)c4c(N)ncnc4n3C)C2)[C@@H](O)C1 [II-72] | 10 to 1000 | – | 10 to 1000
≤ 10 | C=CC(=O)N1C[C@@H]2[C@@H](C#Cc3c(-c4ccc(Oc5cccc(C)n5)c(OC)c4)c4c(N)ncnc4n3C(C)C)[C@@H]2C1 [II-219, 1-((1R,5S,6s)-6-((4-amino-7-isopropyl-5-(3-methoxy-4-((6-methylpyridin-2-yl)oxy)phenyl)-7H-pyrrolo[2,3-d]pyrimidin-6-yl)ethynyl)-3-azabicyclo[3.1.0]hexan-3-yl)prop-2-en-1-one] | ≤ 10 | ≤ 10 | –
1000 to 10000 | C=CC(=O)N1CC[C@@H](N2CC(C#Cc3c(-c4ccc(OC5(C)CC5)cc4)c4c(N)ncnc4n3C)C2)[C@@H](O)C1 [II-16] | 10 to 1000 | 10 to 1000 | –
10 to 1000 | C=CC(=O)N1CCC(N2CC(C#Cc3c(-c4ccc(Cl)c(OC)n4)c4c(N)ncnc4n3C)C2)CC1CO (stereo not drawn) [II-319] | 10 to 1000 | – | 10 to 1000
10 to 1000 | C=CC(=O)N1CCC(N2CC(C#Cc3c(-c4ccc(Cl)c(CF)c4)c4c(N)ncnc4n3C)C2)CC1 [II-89] | 10 to 1000 | – | 10 to 1000
10 to 1000 | C=CC(=O)N1CCC(C#Cc2c(-c3ccc(Oc4ccccc4)cc3)c3c(N)ncnc3n2C2CCNC2=O)CC1 (stereo not drawn) [Example I-61] | 1000 to 10000 | 1000 to 10000 | –
10 to 1000 | C=CC(=O)N1CCC(C#Cc2c(-c3ccc(Oc4ccccc4)cc3)c3c(N)ncnc3n2C2CCNCC2)CC1 [Example I-40] | 1000 to 10000 | 1000 to 10000 | –
10 to 1000 | Cn1c(C#CC2CC3(C2)CN(C(=O)/C=C/CN2CC(F)C2)C3)c(-c2ccc(Oc3ccccc3)cc2)c2c(N)ncnc21 [II-175, (E)-1-(6-((4-amino-7-methyl-5-(4-phenoxyphenyl)-7H-pyrrolo[2,3-d]pyrimidin-6-yl)ethynyl)-2-azaspiro[3.3]heptan-2-yl)-4-(3-fluoroazetidin-1-yl)but-2-en-1-one] | ≤ 10 | 10 to 1000 | –
10 to 1000 | C=CC(=O)N1C[C@@H]2[C@@H](C#Cc3c(-c4ccc(Oc5cccc(C)n5)c5c4OCO5)c4c(N)ncnc4n3C)[C@@H]2C1 [II-135] | 10 to 1000 | – | 10 to 1000
10 to 1000 | CN(C)C/C=C/C(=O)N1C[C@@H]2[C@@H](C#Cc3c(-c4ccc(Oc5ccccc5)cc4)c4c(N)ncnc4n3C)[C@@H]2C1 [II-207] | 10 to 1000 | 10 to 1000 | –
≤ 10 | C=CC(=O)N1CCN([C@H]2C[C@@H](C#Cc3c(-c4ccc(Oc5ccccc5)cc4)c4c(N)ncnc4n3C)C2)C(=O)C1 [II-214, 4-acryloyl-1-((1s,3s)-3-((4-amino-7-methyl-5-(4-phenoxyphenyl)-7H-pyrrolo[2,3-d]pyrimidin-6-yl)ethynyl)cyclobutyl) piperazin-2-one] | ≤ 10 | ≤ 10 | –
10 to 1000 | C=CC(=O)N1CC[C@H](N2CC(C#Cc3c(-c4cccc(Cl)c4OC)c4c(N)ncnc4n3C)C2)[C@H](O)C1 [II-266] | 1000 to 10000 | 1000 to 10000 | –
10 to 1000 | Cn1c(C#CC2CCCN(C(=O)/C=C/CN3CC(F)C3)CC2)c(-c2ccc(Oc3ccccc3)cc2)c2c(N)ncnc21 (stereo not drawn) [II-184, (E)-1-(4-((4-amino-7-methyl-5-(4-phenoxyphenyl)-7H-pyrrolo[2,3-d]pyrimidin-6-yl)ethynyl)azepan-1-yl)-4-(3-fluoroazetidin-1-yl)but-2-en-1-one] | 1000 to 10000 | 1000 to 10000 | –
≤ 10 | C=CC(=O)N1C[C@@H]2[C@@H](C#Cc3c(-c4ccc(F)c5c4OCO5)c4c(N)ncnc4n3C(C)C)[C@@H]2C1 [II-131] | ≤ 10 | – | ≤ 10
10 to 1000 | C=CC(=O)N1CC[C@H](N2CC(F)(C#Cc3c(-c4ccc(Oc5cccc(C)n5)cc4)c4c(N)ncnc4n3C)C2)[C@@H](O)C1 [II-220, 1-((3S,4S)-4-(3-((4-amino-7-methyl-5-(4-((6-methylpyridin-2-yl)oxy)phenyl)-7H-pyrrolo[2,3-d]pyrimidin-6-yl)ethynyl)-3-fluoroazetidin-1-yl)-3-hydroxypiperidin-1-yl)prop-2-en-1-one] | 10 to 1000 | 10 to 1000 | –
≤ 10 | CN(C)CC=CC(=O)N1CC2C(C#Cc3c(-c4cccc5c4OCO5)c4c(N)ncnc4n3C)C2C1 (stereo not drawn) [II-115] | 10 to 1000 | – | 10 to 1000
≤ 10 | C=CC(=O)NCC(=O)N1CCC(C#Cc2c(-c3ccc(Oc4ccccc4)cc3)c3c(N)ncnc3n2C(C)C)CC1 [Example I-49] | ≤ 10 | ≤ 10 | –
10 to 1000 | C=CC(=O)N1CC[C@H](N2CC(C#Cc3c(-c4ccc(Oc5cccc(C)n5)cc4)c4c(N)ncnc4n3C)C2)[C@H](F)C1 [II-202, 1-((3R,4S)-4-(3-((4-amino-7-methyl-5-(4-(6-methylpyridin-2-yloxy)phenyl)-7H-pyrrolo[2,3-d]pyrimidin-6-yl)ethynyl)azetidin-1-yl)-3-fluoropiperidin-1-yl)prop-2-en-1-one] | 10 to 1000 | 10 to 1000 | –
10 to 1000 | C=CC(=O)N1CCC(O)(C#Cc2c(-c3ccc(Oc4cccc(C)n4)c(OC)c3)c3c(N)ncnc3n2C)CC1 [II-304, formate] | 10 to 1000 | 10 to 1000 | –
10 to 1000 | C=CC(=O)N1CC[C@@H](N2CC(C#Cc3c(-c4ccc5c(c4)OCCO5)c4c(N)ncnc4n3C)C2)[C@@H](O)C1 [II-74] | 10 to 1000 | – | 10 to 1000
10 to 1000 | C=CC(=O)N1CCC(N2CC(C#Cc3c(-c4ccc(C5CC5)c(OC)c4)c4c(N)ncnc4n3C)C2)CC1 [II-97] | 10 to 1000 | – | 10 to 1000
10 to 1000 | C=CC(=O)N1C[C@@H]2[C@@H](C#Cc3c(-c4ccc(Oc5ccccc5)cc4Cl)c4c(N)ncnc4n3C)[C@@H]2C1 [II-48] | ≤ 10 | – | ≤ 10
≤ 10 | C=CC(=O)N1C[C@@H]2[C@@H](C#Cc3c(-c4ccc(Cl)c(OC)c4)c4c(N)ncnc4n3C(C)C)[C@@H]2C1 [II-271] | ≤ 10 | ≤ 10 | –
